How the values were obtained:
Format in all cases: in vivo
[1] = system: barnyardgrass (Echinochloa crus-galli); assay: Test B preemergence
In short: (§1)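 Ratings on a 0 to 100 visual scale (100 complete control) compare treated plants with controls 13 to 15 days after application. Treatments were pre- or postemergence sprays of compound in non-phytotoxic solvent with surfactant.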

[2] = system: crabgrass (Digitaria sanguinalis); assay: Test B preemergence
In short: as §1

[3] = system: morning glory (Ipomoea hederacea); assay: Test B preemergence
In short: as §1

[4] = system: Surinam grass (Brachiaria decumbens); assay: Test B preemergence
In short: as §1

[5] = system: cocklebur (Xanthium strumarium); assay: Test B preemergence
In short: as §1

[6] = system: pigweed (Amaranthus retroflexus); assay: Test B preemergence
In short: as §1

rice (Oryza saliva) [7] = assay: Test B preemergence
In short: as §1

[8] = system: velvetleaf (Abutilon theophrasti); assay: Test B preemergence
In short: as §1

corn (Zea mays) [9] = assay: Test B preemergence
In short: as §1

[10] = system: lambsquarters (Chenopodium album); assay: Test B preemergence
In short: as §1

[11] = system: giant foxtail (Setaria faberii); assay: Test B preemergence
In short: as §1

[12] = system: barnyardgrass (Echinochloa crus-galli); assay: Test B postemergence
In short: as §1

[13] = system: crabgrass (Digitaria sanguinalis); assay: Test B postemergence
In short: as §1

[14] = system: morning glory (Ipomoea hederacea); assay: Test B postemergence
In short: as §1

[15] = system: Surinam grass (Brachiaria decumbens); assay: Test B postemergence
In short: as §1

wild oat (Avena fatua) = assay: Test B postemergence
In short: as §1

[16] = system: wheat (Triticum aestivum); assay: Test B postemergence
In short: as §1

[17] = system: cocklebur (Xanthium strumarium); assay: Test B postemergence
In short: as §1

[18] = system: pigweed (Amaranthus retroflexus); assay: Test B postemergence
In short: as §1

[19] = system: velvetleaf (Abutilon theophrasti); assay: Test B postemergence
In short: as §1

[20] = system: blackgrass (Alopecurus myosuroides); assay: Test B postemergence
In short: as §1

corn (Zea mays) [21] = assay: Test B postemergence
In short: as §1

[22] = system: lambsquarters (Chenopodium album); assay: Test B postemergence
In short: as §1

[23] = system: giant foxtail (Setaria faberii); assay: Test B postemergence
In short: as §1

[24] = system: barnyardgrass (Echinochloa crus-galli); assay: Test C flooded paddy test; conditions: for Barnyardgrass plant response rating: Flooded Paddy, scale 0 to 100, 0 no effect, 100 complete control; for Plant response rating, Barnyardgrass: flooded paddy test, scale 0 to 100 (0 no effect, 100 complete control)
In short: (§2)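 Visual injury score, 0 (no effect) to 100 (complete control), relative to controls. Paddy plants treated at 2-leaf stage; greenhouse hold 12–14 d before rating.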

[25] = system: smallflower flatsedge (Cyperus difformis); assay: Test C flooded paddy test; conditions: for Flatsedge plant response rating: Flooded Paddy, scale 0 to 100, 0 no effect, 100 complete control; for Plant response rating, Flatsedge: flooded paddy test, scale 0 to 100 (0 no effect, 100 complete control)
In short: as §2

rice (Oryza saliva) [26] = assay: Test C flooded paddy test; conditions: for Rice plant response rating: Flooded Paddy, scale 0 to 100, 0 no effect, 100 complete control; for Plant response rating, Rice: flooded paddy test, scale 0 to 100 (0 no effect, 100 complete control)
In short: as §2

[27] = system: duck salad (Heteranthera limosa); assay: Test C flooded paddy test; conditions: for Ducksalad plant response rating: Flooded Paddy, scale 0 to 100, 0 no effect, 100 complete control; for Plant response rating, Ducksalad: flooded paddy test, scale 0 to 100 (0 no effect, 100 complete control)
In short: as §2

[28] = Preemergence, Rate 500 g/ha, scale 0 to 100, 0 no effect, 100 complete control
[29] = preemergence, Rate 125 g/ha, scale of 0 to 100 where 0 is no effect and 100 is complete control, 13 to 15 days
[30] = Rate 125 g/ha, scale 0 to 100, 0 no effect, 100 complete control
[31] = Rate 500 g/ha, scale 0 to 100, 0 is no effect, 100 is complete control, 13 to 15 days

Structure (SMILES): Cc1cccc(N2CCC(n3ccc(C(C)(C)C)n3)C2=O)c1 (stereo not shown) [Compound 112]
- Plant response rating, Barnyardgrass [1, 28]: 100
- Plant response rating, Barnyardgrass [1, 29]: 90
- Plant response rating, Crabgrass [2, 28]: 100
- Plant response rating, Crabgrass [2, 29]: 100
- Plant response rating, Morningglory [3, 28]: 30
- Plant response rating, Morningglory [3, 29]: 30
- Plant response rating, Surinam grass [4, 28]: 30
- Plant response rating, Surinam grass [4, 29]: 10
- Plant response rating, Cocklebur [5, 28]: 0
- Plant response rating, Cocklebur [5, 29]: 0
- Plant response rating, Pigweed [6, 28]: 100
- Plant response rating, Pigweed [6, 29]: 100
- Plant response rating, Rice (rice (Oryza saliva) [7]; [28]): 100
- Plant response rating, Rice (rice (Oryza saliva) [7]; [29]): 0
- Plant response rating, Velvetleaf [8, 28]: 0
- Plant response rating, Velvetleaf [8, 29]: 0
- Plant response rating, Corn (corn (Zea mays) [9]; [28]): 30
- Plant response rating, Corn (corn (Zea mays) [9]; [29]): 0
- Plant response rating, Lambsquarters [10, 28]: 100
- Plant response rating, Lambsquarters [10, 29]: 100
- Plant response rating, Foxtail, Giant [11, 28]: 100
- Plant response rating, Foxtail, Giant [11, 29]: 100
- Plant response rating, Barnyardgrass [12, 30]: 0
- Plant response rating, Barnyardgrass [12, 31]: 20
- Plant response rating, Crabgrass [13, 30]: 30
- Plant response rating, Crabgrass [13, 31]: 30
- Plant response rating, Morningglory [14, 30]: 20
- Plant response rating, Morningglory [14, 31]: 50
- Plant response rating, Surinam grass [15, 30]: 0
- Plant response rating, Surinam grass [15, 31]: 100
- Plant response rating, Wild Oat (wild oat (Avena fatua); [30]): 30
- Plant response rating, Wild Oat (wild oat (Avena fatua); [31]): 60
- Plant response rating, Wheat [16, 30]: 40
- Plant response rating, Wheat [16, 31]: 40
- Plant response rating, Cocklebur [17, 30]: 0
- Plant response rating, Cocklebur [17, 31]: 0
- Plant response rating, Pigweed [18, 30]: 60
- Plant response rating, Pigweed [18, 31]: 80
- Plant response rating, Velvetleaf [19, 30]: 0
- Plant response rating, Velvetleaf [19, 31]: 0
- Plant response rating, Blackgrass [20, 30]: 0
- Plant response rating, Blackgrass [20, 31]: 0
- Plant response rating, Corn (corn (Zea mays) [21]; [30]): 0
- Plant response rating, Corn (corn (Zea mays) [21]; [31]): 0
- Plant response rating, Lambsquarters [22, 30]: 30
- Plant response rating, Lambsquarters [22, 31]: 30
- Plant response rating, Foxtail, Giant [23, 30]: 0
- Plant response rating, Foxtail, Giant [23, 31]: 0
- Barnyardgrass plant response rating ([24]; Rate 250 g/ha): 20
- Barnyardgrass plant response rating ([24]; Rate 500 g/ha): 60
- Plant response rating, Barnyardgrass ([24]; Rate 62 g/ha): 0
- Plant response rating, Barnyardgrass ([24]; Rate 125 g/ha): 0
- Flatsedge plant response rating ([25]; Rate 250 g/ha): 100
- Flatsedge plant response rating ([25]; Rate 500 g/ha): 100
- Plant response rating, Flatsedge ([25]; Rate 62 g/ha): 20
- Plant response rating, Flatsedge ([25]; Rate 125 g/ha): 50
- Rice plant response rating (rice (Oryza saliva) [26]; Rate 250 g/ha): 20
- Rice plant response rating (rice (Oryza saliva) [26]; Rate 500 g/ha): 70
- Plant response rating, Rice (rice (Oryza saliva) [26]; Rate 62 g/ha): 0
- Plant response rating, Rice (rice (Oryza saliva) [26]; Rate 125 g/ha): 0
- Ducksalad plant response rating ([27]; Rate 250 g/ha): 20
- Ducksalad plant response rating ([27]; Rate 500 g/ha): 30
- Plant response rating, Ducksalad ([27]; Rate 62 g/ha): 0
- Plant response rating, Ducksalad ([27]; Rate 125 g/ha): 0
